Test results: patent US11964973B2 (priority 2019, dated 2024)

These molecules were tested on Human venous whole blood (IFN-γ) (assay: Human whole blood IFN-γ assay). Settings: Homo sapiens, 24 h, human whole blood, anti-CD3 plus anti-CD28, 24 hours; read-out: INFg Whole Blood Normalized Agonist EC50.
Format: cell-based
Protocol: Assay 10: Human Whole Blood IFN-γ Assay
Human venous whole blood (22.5 μL per well), obtained from healthy donors, was pre-treated with compounds for one hour at 37° C. in a humidified 95% air/5% CO2 incubator. The blood was stimulated with 2.5 μL anti-human CD3 and anti-CD28 mAb at a final concentration of 1 μg/mL each for 24 hours at 37° C. IFN-γ in the supernatants was measured using AlphLISA kit (Cat #AL217).

Row | Structure (SMILES) | EC50
1 | C[C@@H]1CN(c2cc(=O)n(C)c3ccc(C#N)nc23)CC[C@H]1Oc1ccc(C(C)(C)C)cc1 [Example 88, 8-((3R,4R)-4-(4-(tert-butyl)phenoxy)-3-methylpiperidin-1-yl)-5-methyl-6-oxo-5,6-dihydro-1,5-naphthyridine-2-carbonitrile] | 0.88 µM
2 | CC[C@@H]1CN(c2cc(=O)n(C)c3ccc(C#N)nc23)CC[C@H]1Oc1ccc(C(C)(C)CC)cc1 (single isomer, unassigned) [Example 150] | 1.4 µM
3 | C[C@@H]1CN(c2cc(=O)n(C)c3ccc(C#N)nc23)CC[C@H]1Oc1ccc(C2CCCCC2)cc1 (racemic) [Example 106, 8-((3R,4R)-4-(4-cyclohexylphenoxy)-3-methylpiperidin-1-yl)-5-methyl-6-oxo-5,6-dihydro-1,5-naphthyridine-2-carbonitrile] | 2.2 µM
4 | C[C@@H]1CN(c2cc(=O)n(C)c3ccc(C#N)nc23)CC[C@H]1Oc1c(F)cccc1C(F)(F)F (racemic) [Example 124, 8-((3R,4R)-4-(2-fluoro-6-(trifluoromethyl)phenoxy)-3-methylpiperidin-1-yl)-5-methyl-6-oxo-5,6-dihydro-1,5-naphthyridine-2-carbonitrile] | 20 µM
5 | CC[C@@H]1CN(c2cc(=O)n(C)c3ccc(C#N)nc23)CC[C@H]1Oc1ccc(C(F)(F)F)cc1 (racemic) [Example 146, 8-((3R,4R)-3-ethyl-4-(4-(trifluoromethyl)phenoxy)piperidin-1-yl)-5-methyl-6-oxo-5,6-dihydro-1,5-naphthyridine-2-carbonitrile] | 1.7 µM
6 | C[C@@H]1CN(c2cc(=O)n(C)c3ccc(C#N)nc23)CC[C@H]1Oc1ccc(OC(F)(F)F)cc1 (single isomer, unassigned) [Example 80, 6-cyano-1-methyl-4-(trans-3-methyl-4-(4-(trifluoromethoxy)phenoxy)piperidin-1-yl)-1,5-naphthyridin-2(1H)-one (rel)] | 2.4 µM
7 | C[C@@H]1CN(c2cc(=O)n(C)c3ccc(C#N)nc23)CC[C@H]1Oc1ccc(F)cc1F (racemic) [Example 113, 8-((3R,4R)-4-(2,4-difluorophenoxy)-3-methylpiperidin-1-yl)-5-methyl-6-oxo-5,6-dihydro-1,5-naphthyridine-2-carbonitrile] | 4.1 µM

Same assay, conditions: Homo sapiens, human whole blood IFN-γ; read-out: INFg Whole Blood

Row | Structure (SMILES) | EC50
8 | C[C@@H]1CN(c2cc(=O)n(C)c3ccc(C#N)nc23)CC[C@@H]1OCc1ccc(OC(F)(F)F)cc1 (racemic) [Example 235, (+/−) 5-methyl-8-(cis-3-methyl-4-((4-(trifluoromethoxy)benzyl)oxy)piperidin-1-yl)-6-oxo-5,6-dihydro-1,5-naphthyridine-2-carbonitrile] | 5.2 µM
9 | CC(C)c1cccc(O[C@H]2CCN(c3cc(=O)n(C)c4ccc(C#N)nc34)C[C@H]2C)n1 [Example 214, 8-((3R,4S)-4-((6-isopropylpyridin-2-yl)oxy)-3-methylpiperidin-1-yl)-5-methyl-6-oxo-5,6-dihydro-1,5-naphthyridine-2-carbonitrile] | 5 µM
10 | C[C@@H]1CN(c2cc(=O)n(C)c3ccc(C(N)=O)nc23)CC[C@@H]1OCc1ccc(OC(F)(F)F)cc1 (racemic) [Example 236, (+/−) 5-methyl-8-(cis-3-methyl-4-((4-(trifluoromethoxy)benzyl)oxy)piperidin-1-yl)-6-oxo-5,6-dihydro-1,5-naphthyridine-2-carboxamide] | 20 µM
11 | C[C@@H]1CN(c2cc(=O)n(C)c3ccc(C#N)nc23)CC[C@@H]1Oc1ccc(C(F)(F)F)cn1 (single isomer, unassigned) [Example 226] | 2.4 µM
12 | C[C@@H]1CN(c2cc(=O)n(C)c3ccc(C#N)nc23)CC[C@@H]1Oc1ncc(C2CC2)cn1 [Example 223, 8-((3R,4S)-4-((5-cyclopropylpyrimidin-2-yl)oxy)-3-methylpiperidin-1-yl)-5-methyl-6-oxo-5,6-dihydro-1,5-naphthyridine-2-carbonitrile] | 17 µM
13 | CC(C)Oc1ccc(OC2CCN(c3cc(=O)n(C)c4ccc(C#N)nc34)CC2(C)C)nc1 (racemic) [Example 232, (+/−) 8-(4-((5-isopropoxypyridin-2-yl)oxy)-3,3-dimethylpiperidin-1-yl)-5-methyl-6-oxo-5,6-dihydro-1,5-naphthyridine-2-carbonitrile] | 7 µM
14 | C[C@@H]1CN(c2cc(=O)n(C)c3ccc(C#N)nc23)CC[C@@H]1Oc1ccc(C(F)(F)F)cn1 [Example 225, 5-methyl-8-((3R,4S)-3-methyl-4-((5-(trifluoromethyl)pyridin-2-yl)oxy)piperidin-1-yl)-6-oxo-5,6-dihydro-1,5-naphthyridine-2-carbonitrile] | 1.8 µM
15 | C[C@@H]1CN(c2c(C#N)c(=O)n(C)c3ccc(C#N)nc23)CC[C@@H]1Oc1ccc(C(F)(F)F)cc1 [Example 189, 5-methyl-8-((3R,4S)-3-methyl-4-(4-(trifluoromethyl)phenoxy)piperidin-1-yl)-6-oxo-5,6-dihydro-1,5-naphthyridine-2,7-dicarbonitrile] | 20 µM

Same assay, conditions: human whole blood IFN-γ; read-out: INFg Whole Blood

Row | Structure (SMILES) | EC50
16 | CO[C@@H]1CN(c2cc(=O)n(C)c3ccc(C#N)nc23)CC[C@H]1Oc1cccc(C(F)(F)F)c1 (racemic) [Example 261, (±)-trans-8-(3-methoxy-4-(3-(trifluoromethyl)phenoxy)piperidin-1-yl)-5-methyl-6-oxo-5,6-dihydro-1,5-naphthyridine-2-carbonitrile] | 0.91 µM
17 | CO[C@@H]1CN(c2cc(=O)n(C)c3ccc(C#N)nc23)CC[C@H]1Oc1cccc(C(F)(F)F)c1 (racemic) [Example 262, (±)-trans-8-(3-methoxy-4-(3-(trifluoromethyl)phenoxy)piperidin-1-yl)-5-methyl-6-oxo-5,6-dihydro-1,5-naphthyridine-2-carbonitrile] | 12 µM
18 | CC(C)c1ccnc(O[C@H]2CCN(c3cc(=O)n(C)c4ccc(C#N)nc34)C[C@H]2C)c1 (single isomer, unassigned) [Example 213] | 4.9 µM
19 | CO[C@@H]1CN(c2nc(=O)n(C)c3ccc(C#N)nc23)CC[C@H]1Oc1cccc(C(F)(F)F)c1 (racemic) [Example 276] | 1 µM

Same assay, conditions: human whole blood, anti-CD3 plus anti-CD28, 24 hours; read-out: INFg Whole Blood Normalized Agonist EC50

Row | Structure (SMILES) | EC50
20 | C[C@@H]1CN(c2cc(=O)n(C)c3ccc(C#N)nc23)CC[C@H]1Oc1ccc(C(F)(F)F)cc1 (single isomer, unassigned) [Example 99] | 2.9 µM
21 | CC[C@@H]1CN(c2cc(=O)n(C)c3ccc(C#N)nc23)CC[C@H]1Oc1ccc(C(F)(F)F)cc1 (single isomer, unassigned) [Example 148] | 12 µM
22 | C[C@@H]1CN(c2cc(=O)n(C)c3ccc(C#N)nc23)CC[C@H]1Oc1ccc(F)c(F)c1 (single isomer, unassigned) [Example 105] | 2 µM
23 | C[C@@H]1CN(c2cc(=O)n(C)c3ccc(C#N)nc23)CC[C@H]1Oc1c(F)cccc1F (single isomer, unassigned) [Example 127] | 20 µM

Same assay, conditions: read-out: INFg Whole Blood; human whole blood IFN-γ

Row | Structure (SMILES) | EC50
24 | CCO[C@@H]1CN(c2nc(=O)n(C)c3ccc(C#N)nc23)CC[C@H]1Oc1cccc(C(F)(F)F)c1 [Example 279, 4-((3R,4R)-3-ethoxy-4-(3-(trifluoromethyl)phenoxy)piperidin-1-yl)-1-methyl-2-oxo-1,2-dihydropyrido[3,2-d]pyrimidine-6-carbonitrile] | 8.7 µM
25 | CCO[C@@H]1CN(c2nc(=O)n(C)c3ccc(C#N)nc23)CC[C@H]1Oc1cccc(C(F)(F)F)c1 [Example 278, 4-((3R,4R)-3-ethoxy-4-(3-(trifluoromethyl)phenoxy)piperidin-1-yl)-1-methyl-2-oxo-1,2-dihydropyrido[3,2-d]pyrimidine-6-carbonitrile] | 0.64 µM
